These results are taken from patent US20250360233A1, “Central Neurodegeneration Imaging Agent and Method of Preparing the Same” (National Atomic Research Institute, priority 2024, published 2025).

Series [1] in a line: logP analysis of the F-18-α-syn3. The series is classed as physicochemical. From the text:
The experimental results of the logP analysis of the F-18-α-syn3 of the present invention are as follows:
The above data is about testing the logP of the F-18-α-syn3 labeling finished product solution repeatedly. The result confirms that all the logP values range from 2 to 3.

Series [2] in a line: F-18-α-syn3 serum stability. The series is classed as in vitro ADME. Conditions: serum at 37° C., after a hour. Here is the method:
Moreover, the present invention discloses giving considerations to the F-18-α-syn3 formula and serum stability and thus conducting F-18-α-syn3 formula research to attain a recycling rate as high as 90.1%. Regarding a test of F-18-α-syn3 serum stability, medications are placed within serum at 37° C., achieving radioactive chemical purity of 91.5% even after a hour.

A further series concerns the target α-synuclein (Homo sapiens, UniProt P37840). The series can be described thus: test tube competition test, α-synuclein. Conditions: read-out: IC50 (50% binding inhibition). From the text: (§1) Therefore, the present invention not only effectively reduces the logP value but also passes a test of affinity, specificity, and parallel artificial membrane.
The target in a further series is amyloid-β(Aβ) (Homo sapiens, UniProt P05067). As to the kind of experiment: affinity comparison, amyloid-β. Conditions: read-out: amyloid-β(Aβ) value compared with the α-synuclein IC50. It counts as binding.
Description: as §1

A short description of series [3]: parallel artificial membrane permeation assay (PAMPA) simulating the blood-brain barrier. The series is classed as in vitro ADME.
Description: as §1

Series [4] has as its system mouse brains (PD brain lesions). As to the kind of experiment: PET brain imaging of Rotenone-induced Parkinson's disease mice versus Sham. It counts as in vivo. The conditions noted are these: for F-18 images of PD brains compared with the control group (Sham): Rotenone tube feeding 12 weeks. The source says:
Regarding its application, the present invention entails feeding Rotenone to mice by tube feeding continuously for 12 weeks to induce the mouse brains to manifest Parkinson's disease (PD) symptom animal mode for function as the experimental group, treating mice with placebo to serve as the control group (Sham) without manifesting any PD lesions, performing imaging of the mouse brains with an F-18-FE-PE21, F-18-FDOPA and F-18-α-syn3 respectively, displaying the longitudinal-section and cross-section images of the mouse brains, and comparing the intake of the F-18 imaging agent into the mouse brains.

Where [5] appears, read: Rotenone PD mice versus Sham, PET.

Where two headings read alike, the source gives them in different places.

Sequence of amyloid-β(Aβ) (P05067 672-713 limits assumed): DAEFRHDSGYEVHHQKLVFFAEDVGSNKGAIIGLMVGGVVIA

Consider `O=C1/C(=C\C=C\c2ccc([N+](=O)[O-])cc2)c2ccccc2N1CCOCCF` [F-18-α-syn3, (Z)-1-(2-(2-fluoroethoxy)ethyl)-3-((E)-3-(4-nitrophenyl)allylidene) indolin-2-one], for which the logP in series [1] (50 uCi, read-out: logP) is 2.63; in series [1] (end solution, 22 uCi, read-out: logP) it was 2.41; in series [1] (end solution, 50 uCi, read-out: logP) it was 2.07; in series [1] (labeling finished product solution tested repeatedly, read-out: logP, range of all repeated tests), 2 to 3. Moreover, the “radioactive chemical purity in serum” value in series [2] was 91.5%. For the same compound, the figures for the IC50 on α-synuclein and at amyloid-β(Aβ) were 172 nM and 142 nM, respectively. The “concentration that ensures the satisfaction of PAMPA” value in series [3] was “at least 6 nM”. The compound further showed a PAMPA pass rate in series [3] (concentration of 60 nM) of 56.25%. For the same compound, the background absorption level result in series [4] (setting [5]) is “obviously lower”. Moreover, the “F-18 images of PD brains compared with the control group (Sham)” value in series [4] (mice, PET) is on record as “clearer F-18 images”. For the same compound, the “passage through the blood-brain barrier (BBB) into mouse brains” value in series [4] (mice) was “can pass through the blood-brain barrier”.

Consider `Cc1ccc([C@H]2C[C@@H]3CC[C@H]([C@H]2C(=O)OCC[18F])N3C/C=C/I)cc1` [F-18-FE-PE21], for which, in series [4] (setting [5]), the “brain intake, experimental group versus control group” value was “lower”. For the same compound, the “F-18 images of PD brains compared with the control group (Sham)” value in series [4] (mice, PET) was “no difference and no specificity”.

Take `N[C@@H](Cc1cc(O)c(O)cc1[18F])C(=O)O` [F-18-FDOPA]: the “selectivity in terms of brain distribution” value in series [4] (setting [5]) is given as “no selectivity”. In addition, the “F-18 images of PD brains compared with the control group (Sham)” value in series [4] (mice, PET) is “no difference and no specificity”.
